Patent US9695172B2, “Diazepane derivatives and uses thereof” (Dana-Farber Cancer Institute, Inc., priority 2014, dated 2017)
Read-outs that look alike come from different tables or passages of the source.

Columns and labels:
NOMO-1 = experiment: Cellular assay, cell viability (ATPlite), NOMO-1; assay type: cell-based; settings: NOMO-1 cell line
Description: (§1) The compounds of the invention are also evaluated in the BRD4 dependant cell line for the cellular activity to generate cellular IC50 values.
(§2) Cells (e.g., BRD4 dependant cells) were counted and adjusted to 60,000 cells/mL. Using a Biotek EL406, 50 μL of the cells in media were distributed into 384 well white plates from Thermo. Immediately after plating, compounds of the invention in DMSO were distributed to plates. For large plate sets, cells were returned to a 37° C. incubator while not in use. The compounds were added to plates using a 100 nL 384 well pin transfer manifold on a Janus workstation. Stocks were arrayed in 10 point quadruplicate dose response in DMSO stock in 384-well Greiner compound plates. After addition of the compounds, plates were incubated for three days in a 37° C. incubator. Cell viability was read out using ATPlite from Perkin Elmer. Plates were removed from the incubator and brought to room temperature prior to use. Lyophilized powder was resuspended in lysis buffer and diluted 1:2 with DI water. 25 μL of this solution was added to each well using the Biotek liquid handler. Plates were sealed with adherent aluminum seals prior to vortexing and spinning down at 1000 g for 1 minute. Plates were incubated for 15 minutes at room temperature before signal was read on an Envision Plate Reader.

MV411 = experiment: Cellular assay, cell viability (ATPlite), MV411; assay type: cell-based; settings: MV411 cell line
Description: as §1, §2

AURKB = AURKB (Homo sapiens (Human), UniProt Q96GD4); experiment: AURKB IC50; assay type: biochemical
797 = experiment: Cellular assay, cell viability (ATPlite), 797; assay type: cell-based; settings: 797 cell line
Description: as §1, §2

MOLM-13 = experiment: Cellular assay, cell viability (ATPlite), MOLM-13; assay type: cell-based; settings: MOLM-13 cell line
Description: as §1, §2

BRDT = BRDT (Homo sapiens (Human), UniProt Q58F21); experiment: BRDT IC50; assay type: binding
Description: (§3) Assays were performed with minor modifications from the manufacturer's protocol (PerkinElmer, USA). All reagents were diluted in 50 mM HEPES, 150 mM NaCl, 0.1% w/v BSA, and 0.01% w/v Tween 20 at pH 7.5 and allowed to equilibrate to room temperature prior to addition to plates. After addition of Alpha beads to master solutions, all subsequent steps were performed in low light conditions. […] Addition to wells was performed with either a multichannel pipet (for optimization experiments) or a Biotek EL406 liquid handler. After a 1000-rpm spin-down for 1 minute, 100 nL of the solutions of the compounds of the invention from stock plates were added by pin transfer using a Janus Workstation (PerkinElmer, USA). The streptavidin-coated donor beads (25 μg/ml final) were added as with previous solution in a 2×, 10 μL volume. Following this addition, the plates were sealed with foil to block light exposure and to prevent evaporation. The plates were spun down again at 1000 rpm for 1 minute. Next, the plates were incubated in the room with the plate reader (for temperature equilibration) for 1.5 hour prior to reading the assay.

BRD4 = BRD4 (Homo sapiens (Human), UniProt O60885); experiment: BRD4 IC50 (acetyl-histone binding assay)
Description: as §3

AURKC = AURKC (Homo sapiens (Human), UniProt Q9UQB9); experiment: AURKC IC50; assay type: biochemical
AURKA = AURKA (Homo sapiens (Human), UniProt O14965); experiment: AURKA IC50; assay type: biochemical
LRRK2 = LRRK2 (Homo sapiens (Human), UniProt Q5S007); experiment: LRRK2 IC50; assay type: biochemical
TF-1 = experiment: Cellular assay, cell viability (ATPlite), TF-1; assay type: cell-based; settings: TF-1 cell line
Description: as §1, §2

Kasumi-1 = experiment: Cellular assay, cell viability (ATPlite), Kasumi-1; assay type: cell-based; settings: Homo sapiens; Kasumi-1 cell line
Description: as §1, §2

[1] = first BRD4 value listed for the compound
[2] = second BRD4 value listed for the compound

LRRK2, sequence (Q5S007 whole entry): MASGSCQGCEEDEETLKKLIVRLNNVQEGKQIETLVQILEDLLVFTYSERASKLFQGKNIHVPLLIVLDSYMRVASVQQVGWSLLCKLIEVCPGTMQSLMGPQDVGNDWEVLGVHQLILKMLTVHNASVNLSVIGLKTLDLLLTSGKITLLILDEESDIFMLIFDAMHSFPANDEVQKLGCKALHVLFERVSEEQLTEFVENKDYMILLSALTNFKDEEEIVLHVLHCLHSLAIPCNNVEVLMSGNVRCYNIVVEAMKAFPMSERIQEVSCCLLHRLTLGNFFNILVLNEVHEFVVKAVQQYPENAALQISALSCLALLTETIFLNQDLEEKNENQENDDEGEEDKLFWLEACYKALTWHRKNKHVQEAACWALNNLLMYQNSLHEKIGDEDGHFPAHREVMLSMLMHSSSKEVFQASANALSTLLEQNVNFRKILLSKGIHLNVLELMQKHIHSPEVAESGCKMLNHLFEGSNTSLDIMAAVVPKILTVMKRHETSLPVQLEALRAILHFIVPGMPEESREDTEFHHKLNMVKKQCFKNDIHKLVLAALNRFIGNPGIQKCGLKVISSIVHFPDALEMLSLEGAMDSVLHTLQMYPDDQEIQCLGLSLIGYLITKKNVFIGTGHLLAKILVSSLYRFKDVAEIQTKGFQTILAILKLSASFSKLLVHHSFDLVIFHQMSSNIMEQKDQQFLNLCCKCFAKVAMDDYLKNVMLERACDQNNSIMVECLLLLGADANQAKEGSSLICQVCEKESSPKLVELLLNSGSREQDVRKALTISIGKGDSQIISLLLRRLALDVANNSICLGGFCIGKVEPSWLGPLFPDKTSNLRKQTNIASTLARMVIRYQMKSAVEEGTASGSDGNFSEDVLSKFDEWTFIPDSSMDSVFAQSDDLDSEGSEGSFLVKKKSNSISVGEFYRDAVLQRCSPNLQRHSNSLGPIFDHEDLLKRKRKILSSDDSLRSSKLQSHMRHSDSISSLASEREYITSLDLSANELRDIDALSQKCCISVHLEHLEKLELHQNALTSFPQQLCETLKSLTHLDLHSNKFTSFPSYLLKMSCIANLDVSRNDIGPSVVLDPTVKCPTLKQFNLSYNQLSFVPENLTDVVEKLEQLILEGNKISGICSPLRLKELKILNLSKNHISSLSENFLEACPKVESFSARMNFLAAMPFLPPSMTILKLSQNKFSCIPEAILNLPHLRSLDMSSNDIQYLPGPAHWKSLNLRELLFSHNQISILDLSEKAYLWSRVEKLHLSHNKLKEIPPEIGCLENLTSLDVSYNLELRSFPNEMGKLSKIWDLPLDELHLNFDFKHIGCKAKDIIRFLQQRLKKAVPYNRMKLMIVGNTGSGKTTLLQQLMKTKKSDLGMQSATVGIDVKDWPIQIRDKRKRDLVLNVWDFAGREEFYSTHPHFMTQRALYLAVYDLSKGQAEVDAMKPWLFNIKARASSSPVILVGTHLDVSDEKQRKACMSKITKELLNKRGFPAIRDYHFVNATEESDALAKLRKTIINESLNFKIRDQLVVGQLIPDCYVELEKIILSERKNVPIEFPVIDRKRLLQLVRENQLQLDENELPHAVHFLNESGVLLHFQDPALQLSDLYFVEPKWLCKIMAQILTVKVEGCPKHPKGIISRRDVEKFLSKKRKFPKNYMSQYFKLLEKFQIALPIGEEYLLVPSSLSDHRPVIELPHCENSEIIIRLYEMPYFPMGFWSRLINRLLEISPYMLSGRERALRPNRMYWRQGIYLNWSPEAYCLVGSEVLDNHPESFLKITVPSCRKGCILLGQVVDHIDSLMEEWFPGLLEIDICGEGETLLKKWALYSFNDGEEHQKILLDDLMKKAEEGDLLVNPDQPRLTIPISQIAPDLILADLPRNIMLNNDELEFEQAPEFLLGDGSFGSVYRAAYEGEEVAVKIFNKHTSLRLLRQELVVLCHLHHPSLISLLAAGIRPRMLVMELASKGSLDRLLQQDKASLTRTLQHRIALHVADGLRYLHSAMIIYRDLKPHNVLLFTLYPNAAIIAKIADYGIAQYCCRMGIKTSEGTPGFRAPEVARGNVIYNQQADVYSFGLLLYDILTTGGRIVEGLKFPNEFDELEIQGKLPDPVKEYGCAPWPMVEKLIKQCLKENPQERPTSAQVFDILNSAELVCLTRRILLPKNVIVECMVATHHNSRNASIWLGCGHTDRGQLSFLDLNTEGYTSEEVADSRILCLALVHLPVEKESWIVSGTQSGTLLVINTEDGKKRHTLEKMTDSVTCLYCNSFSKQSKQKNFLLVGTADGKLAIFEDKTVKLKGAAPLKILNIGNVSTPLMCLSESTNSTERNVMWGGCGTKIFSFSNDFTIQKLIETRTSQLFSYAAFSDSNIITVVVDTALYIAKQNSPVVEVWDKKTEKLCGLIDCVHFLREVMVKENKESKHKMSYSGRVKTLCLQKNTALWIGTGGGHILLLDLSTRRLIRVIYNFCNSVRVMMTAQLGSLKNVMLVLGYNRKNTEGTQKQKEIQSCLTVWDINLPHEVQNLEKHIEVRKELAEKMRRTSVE
AURKA, sequence (O14965 whole entry): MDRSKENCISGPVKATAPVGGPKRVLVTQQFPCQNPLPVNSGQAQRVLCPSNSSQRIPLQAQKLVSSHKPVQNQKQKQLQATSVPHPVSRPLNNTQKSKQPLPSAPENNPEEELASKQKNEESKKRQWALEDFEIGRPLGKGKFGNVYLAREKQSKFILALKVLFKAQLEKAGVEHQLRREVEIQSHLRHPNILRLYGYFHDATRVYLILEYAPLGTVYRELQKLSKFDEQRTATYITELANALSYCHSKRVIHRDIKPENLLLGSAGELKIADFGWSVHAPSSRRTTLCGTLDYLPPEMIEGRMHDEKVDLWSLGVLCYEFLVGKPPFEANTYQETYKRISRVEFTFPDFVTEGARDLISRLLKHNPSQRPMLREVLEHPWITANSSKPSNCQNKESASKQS
AURKB, sequence (Q96GD4 whole entry): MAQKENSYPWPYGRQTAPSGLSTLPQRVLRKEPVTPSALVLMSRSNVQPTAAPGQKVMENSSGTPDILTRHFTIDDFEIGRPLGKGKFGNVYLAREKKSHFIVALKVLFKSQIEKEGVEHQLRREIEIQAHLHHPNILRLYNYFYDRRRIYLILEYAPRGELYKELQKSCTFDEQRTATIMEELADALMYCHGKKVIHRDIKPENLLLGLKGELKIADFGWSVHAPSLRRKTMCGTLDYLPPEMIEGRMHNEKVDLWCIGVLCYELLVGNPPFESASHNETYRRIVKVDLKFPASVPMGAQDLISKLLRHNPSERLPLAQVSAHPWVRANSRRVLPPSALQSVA
AURKC, sequence (Q9UQB9 whole entry): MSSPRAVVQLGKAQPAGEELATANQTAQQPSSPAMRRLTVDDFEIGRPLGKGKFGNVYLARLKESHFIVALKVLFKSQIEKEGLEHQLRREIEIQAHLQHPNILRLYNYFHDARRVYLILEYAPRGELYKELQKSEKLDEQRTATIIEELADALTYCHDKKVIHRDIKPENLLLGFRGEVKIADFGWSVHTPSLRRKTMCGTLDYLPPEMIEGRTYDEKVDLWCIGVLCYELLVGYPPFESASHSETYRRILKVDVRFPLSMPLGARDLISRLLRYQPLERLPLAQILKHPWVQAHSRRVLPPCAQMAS

SMILES | IC50 (NOMO-1) | IC50 (MV411) | IC50 (AURKB) | IC50 797 | IC50 (MOLM-13) | IC50 (BRDT) | IC50 (BRD4; [1]) | IC50 (BRD4; [2]) | IC50 (AURKC) | IC50 (AURKA) | IC50 (LRRK2) | IC50 (NOMO-1; Homo sapiens) | IC50 (MV411; Homo sapiens, MV4-11) | IC50 (MOLM-13; Homo sapiens) | TF-1 IC50 (TF-1; result in words) | IC50 (BRD4) | IC50 (Kasumi-1) | IC50 (TF-1; Homo sapiens)
CN1C(=O)c2ccccc2N(C)c2nc(Nc3ccc(S(N)(=O)=O)cc3)ccc21 [Compound 2-221] | > 20 µM | 3.25 µM | > 10 µM | 9.28 µM | 10.9 µM | 5.66 µM | 2.99 µM | 3.27 µM | > 10 µM | > 10 µM | – | – | – | – | – | – | – | –
COc1cc(C(=O)NC2CCN(C)CC2)ccc1Nc1ccc2c(n1)N(C)c1ccccc1C(=O)N2C [Compound 2-227] | 6.36 µM | 1.95 µM | – | 5.76 µM | 4.25 µM | 5.41 µM | 2.14 µM | 1.87 µM | – | – | > 10 µM | – | – | – | – | – | – | –
COc1cc(C(=O)N2CCC(N3CCN(C)CC3)CC2)ccc1Nc1ccc2c(n1)N(C)c1ccccc1C(=O)N2C [Compound 3] | – | – | – | 2.49 µM | – | 3.68 µM | 1.37 µM | 0.813 µM | – | – | > 10 µM | 7.23 µM | 1.42 µM | 2.92 µM | – | – | – | –
C[C@@H](Oc1cc(-n2cnc3ccc(CN4CCN(C)CC4)cc32)sc1C(N)=O)c1ccccc1C(F)(F)F [GSK461364, reference compound] | – | – | – | – | – | > 50 µM | – | – | – | – | – | – | – | – | poor convergence | > 50 µM | – | –
Cc1sc2c(c1C)C(c1ccc(Cl)cc1)=N[C@@H](CC(=O)OC(C)(C)C)c1nnc(C)n1-2 [JQ1, reference compound] | – | – | – | 0.092 µM | – | – | – | – | – | – | – | 0.172 µM | 0.0656 µM | 0.0892 µM | – | – | 0.0488 µM | 0.109 µM
